According to patent US20120302598A1, “IMIDAZOPYRIDINONES” (PFIZER LIMITED, priority 2007, published 2012):
Values joined by “and” are separate entries in the source; they are usually repeats but may differ in a detail not shown here. Equal values may be shown once.

Key:
TLR7 = molecular target: T1, TLR7 (Homo sapiens, UniProt Q9NYK1); experiment: PBL/HCV replicon bioassay; format: cell-based; details: read-out: EC50 (nM) (n = no. of experiments)
T1 construct: PBL contain as a subpopulation plasmacytoid dendritic cells which are the natural interferon producing cells; endogenous in cells; host or cells: peripheral blood lymphocytes (PBL), containing plasmacytoid dendritic cells
T1 sequence (Q9NYK1 27-1049): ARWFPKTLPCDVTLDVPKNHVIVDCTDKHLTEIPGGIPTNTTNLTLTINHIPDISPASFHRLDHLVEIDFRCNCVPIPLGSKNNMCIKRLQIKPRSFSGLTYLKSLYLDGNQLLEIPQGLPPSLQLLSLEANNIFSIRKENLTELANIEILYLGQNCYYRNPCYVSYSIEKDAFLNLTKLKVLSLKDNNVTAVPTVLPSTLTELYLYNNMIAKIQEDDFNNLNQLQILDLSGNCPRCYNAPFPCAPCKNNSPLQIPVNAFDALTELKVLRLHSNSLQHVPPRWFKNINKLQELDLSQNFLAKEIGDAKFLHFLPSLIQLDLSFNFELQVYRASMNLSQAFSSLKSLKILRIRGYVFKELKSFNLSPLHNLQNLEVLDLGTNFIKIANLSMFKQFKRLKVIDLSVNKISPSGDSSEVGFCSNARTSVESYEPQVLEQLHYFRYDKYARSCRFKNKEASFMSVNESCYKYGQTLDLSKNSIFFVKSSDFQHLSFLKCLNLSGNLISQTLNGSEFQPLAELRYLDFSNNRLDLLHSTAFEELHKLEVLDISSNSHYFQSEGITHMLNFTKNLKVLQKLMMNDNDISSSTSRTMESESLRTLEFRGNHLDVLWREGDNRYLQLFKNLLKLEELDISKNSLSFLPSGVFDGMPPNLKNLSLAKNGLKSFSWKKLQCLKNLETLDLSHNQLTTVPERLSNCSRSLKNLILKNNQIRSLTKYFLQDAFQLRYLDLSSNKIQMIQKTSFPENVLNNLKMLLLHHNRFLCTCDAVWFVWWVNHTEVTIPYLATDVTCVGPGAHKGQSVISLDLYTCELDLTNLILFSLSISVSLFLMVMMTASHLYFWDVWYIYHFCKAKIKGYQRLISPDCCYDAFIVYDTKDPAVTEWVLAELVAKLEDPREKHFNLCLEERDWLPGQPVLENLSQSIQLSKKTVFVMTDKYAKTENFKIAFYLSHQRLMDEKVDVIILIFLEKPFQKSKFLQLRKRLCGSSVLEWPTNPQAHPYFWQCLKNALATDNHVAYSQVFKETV
Description: EMCV: Encephalomyocarditis virus IRES: Internal ribosmomal entry site Huh: Huh-7 human hepatoma cell line 7 (parental cells used to generate HCV replicon cell lines) IUC: luciferase ubi: ubiquitin neo: neomycin ET: glutamic acid, threonine (cell culture adaptive mutations in the replicon used in the assay) RPMI-FCS: Roswell Park Memorial Institute (cell culture medium for PBL)—Foetal Calf Serum PBL: peripheral blood lymphocytes
PBL contain as a subpopulation plasmacytoid dendritic cells which are the natural interferon producing cells during an infection and as such are an excellent model in which to profile interferon inducers. As an extremely sensitive antiviral bioassay, supernatant taken from PBL is assayed for antiviral activity in the HCV replicon system.
The HCV replicon (Huh-5-2[l389 luc-ubi-neo-NS3-3′/ET]) is an in vitro model of HCV replication in which the luciferase reporter is incorporated into HCV sequences and stably maintained in the human hepatoma cell line Huh-7. The firefly luciferase reporter is expressed as a luciferase-ubiquitin-neomycin phosphotransferase fusion protein which is cleaved by host proteases to release luciferase. […] Firefly luciferase activity is detected using a Bright-Glo™ Luciferase Assay System manufactured by Promega. […]

[1] = test system: HCV replicon containing cells; experiment: Direct response of HCV replicon containing cells to TLR agonists; format: cell-based, human; details: compound applied directly to replicon cells, not via PBL conditioned medium

EC50 (TLR7)	Compound	direct response of HCV replicon containing cells to the TLR agonist [1]
698 nM and 1240 nM and 1160 nM and 3700 nM and 475 nM and 1430 nM and 1040 nM and 583 nM and 1010 nM and 737 nM	Cc1ccc(Cn2c(=O)[nH]c3c(N)nc(OCC4CCCO4)cc32)cn1 (stereo not drawn) [Example 5, 4-Amino-1-(6-methyl-pyridin-3-ylmethyl)-6-(tetrahydro-furan-2-R/S-ylmethoxy)-1,3-dihydro-imidazo[4,5-c]pyridin-2-one]	
	CC(C)Cn1cnc2c(N)nc3ccccc3c21 [Imiquimod]	do not respond directly
> 4000 nM and 1920 nM and 1000 nM and 1450 nM and 1940 nM and 1470 nM and 1250 nM and 1580 nM	Cc1ccc(Cn2c(=O)[nH]c3c(N)nc(OC[C@H]4CCCO4)cc32)cn1 [Example 6, 4-Amino-1-(6-methyl-pyridin-3-ylmethyl)-6-(tetrahydro-furan-2-R-ylmethoxy)-1,3-dihydro-imidazo[4,5-c]pyridin-2-one]	
